Where a name gives a salt, the structure may show the parent alone.
Assay: pH of aqueous solution
Type: physicochemical
Experimental: The pH of the formulations of the invention are greater than 3 and less than 7. For example, the pH can be 3-7, 3-6, 4-7, 4-6, or 4-5. The pH of the solution and the measured pH of the topical composition may not be the same. For the purposes of this specification, either pH may be relevant but it is preferred that the pH is defined as that in the aqueous phase and not in the final cream. The pH of a 0.1% w/v aqueous solution of nalmefene hydrochloride is 6.13 at 22.5° C.: the corresponding values for 1% and 5% solutions are 5.76 and 4.66.

## C=C1CC[C@@]2(O)[C@H]3Cc4ccc(O)c5c4[C@@]2(CCN3CC2CC2)[C@H]1O5 [nalmefene hydrochloride, 6-methylene-6-desoxy-N-cyclopropylmethyl-14-hydroxydihydronormorphine]
0.1% w/v aqueous solution, 22.5° C.
  pH of aqueous solution: 6.13
1% solution
  pH of aqueous solution: 5.76
5% solution
  pH of aqueous solution: 4.66
